For orientation: IC50 means the concentration at which inhibition is half-maximal. As usually defined, the Kd is the constant that tells how readily two partners part at equilibrium.

Residues, ends and D or L forms follow the SMILES beside them.

These results are taken from paper PMC10333884, “Large‐scale phosphomimetic screening identifies phospho‐modulated motif‐based protein interactions” (Molecular Systems Biology, 2023).

For assay [1], the target named is T1, TSG101 UEV (Homo sapiens, UniProt Q99816).
T1 construct: TSG101_UEV__Q99816_1_145; made in house; host or cells: Escherichia coli BL21-Gold(DE3)
T1 sequence (Q99816 1-145): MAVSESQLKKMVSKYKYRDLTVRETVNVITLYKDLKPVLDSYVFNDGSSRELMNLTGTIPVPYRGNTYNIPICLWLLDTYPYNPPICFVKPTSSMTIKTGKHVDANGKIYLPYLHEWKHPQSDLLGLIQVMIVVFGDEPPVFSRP
Nature of the assay: FP displacement assay, TSG101 UEV. The assay is classed as binding. The conditions noted are these: for IC50: read-out: IC50 values of displacement curves, with SEM; for Kd: read-out: KD values ± SEM. As to the method:
(§1) FP experiments were performed as described previously (Kliche et al, [2021]). Shortly, in order to monitor the binding event, FITC‐labelled peptides were used (excitation 495 nm, emission: 535 nm) and the FP signal was recorded in mP on a SpectraMax iD5 Multi‐Mode Microplate Reader (Molecular Devices) by measuring the emitted light in two angels. The measurements were performed at room temperature and prepared in nonbinding black half area 96‐well microplates (Corning®; 50 μl/well). For measuring direct binding, that is saturation curves, a 1:1 dilution series of protein domain (25 μl/well) was generated in 50 mM sodium phosphate buffer pH 7.4 and the measurement performed with 5 nM FITC‐labelled peptide (25 μl/well). The buffer‐corrected values were subsequently plotted with PRISM and fitted to the quadratic equation (Gianni et al, [2005]).
(§2) The 1:1 dilution series in this experiment was performed with the unlabelled peptide in 50 mM sodium phosphate buffer pH 7.4, so that each well‐contained unlabelled peptide (25 μl) at a certain concentration and pre‐formed complex (25 μl). The KD values of this indirectly monitored binding event were calculated as described previously (Nikolovska‐Coleska et al, [2004]). All measurements were at least in technical triplicates as well as biological duplicates when indicated. An amplitude shift between repeat measurements in the displacement experiments was occasionally observed due to variations in the protein preparations. If that was the case, the “active” protein concentration was back‐calculated according to the quadratic equation from the saturation curves performed in parallel. By comparing the active protein concentrations in the complex between different protein preparations, the amplitude was normalised.

In assay [2] the target is T1, TSG101 UEV. In words: Phosphomimetic ProP-PD selection, TSG101 UEV. Particulars: phosphomimetic enrichment score of the wild-type/phosphomimetic (E) pair at the phosphosite, PM_HD2 phage selection; positive = phosphomimetic enhances binding; P-value in brackets not taken. On the procedure:
(§3) Selections using the PM_HD2 phage library were performed as described previously with minor modification to the original protocol. The corresponding tag protein (either GST or MBP) was first used during negative selections. Selections were run for 4 days. • Bait and tag proteins (10–15 μg in 100 μl PBS) were immobilised in 96‐well MaxiSorb plate (NUNC) o.n. at 4°C. • Escherichia coli OmniMax bacteria were grown in 2YT medium supplemented with tetracycline (100 μg/ml) at 37°C and 200 rpm. • Plates with immobilised bait/tag proteins were blocked with 0.5% BSA in PBS for 1 h at 4°C. • Phage library (10 μl/well) was prepared by diluting 10× with PBS and adding one‐fourth of the volume of PEG/NaCl. For phage precipitation, prepared library was incubated for 10 min on ice followed by centrifugation for 10 min at 10,000 × g at 4°C. […]
(§4) Based on the results from phage pool ELISAs, samples from selection Day 3 and 4 were selected for NGS, as described previously (Benz et al, [2022]). • Peptide coding regions were amplified and dual‐barcoded by PCR. […] From the columns, samples were eluted with 30 μl TE (10 mM Tris–HCl, 1 mM EDTA. pH 7.5) buffer and quantified with Quant‐iT PicoGreen dsDNA Assay Kit. • Samples were sequenced on MiSeq (MSC 2.5.0.5/RTA 1.18.54) with a 151 nt (Read1) setup using “Version3” chemistry. […]

Assay [3] concerns the target T2, MAP1LC3A (Homo sapiens, UniProt Q9H492).
T2 construct: GST (cleaved yes); made in house; host or cells: Escherichia coli BL21-Gold(DE3)
In words: FP displacement assay, MAP1LC3A. The assay is classed as binding. Particulars: for IC50: Fig 4B, MAP1LC3A ATG8, FP displacement, technical triplicates, read-out: IC50 values of displacement curves, with SEM; for Kd: read-out: KD values ± SEM.

Assay [4] deals with T3, MAP1LC3B (Homo sapiens, UniProt Q9GZQ8).
T3 construct: GST (cleaved yes); made in house; host or cells: Escherichia coli BL21-Gold(DE3)
In words: FP displacement assay, MAP1LC3B. The assay is classed as binding. Particulars: read-out: KD values ± SEM. On the procedure:
as §1, §2

Assay [5] deals with T2, MAP1LC3A. Nature of the assay: Phosphomimetic ProP-PD selection, MAP1LC3A. The conditions noted are these: phosphomimetic enrichment score of the wild-type/phosphomimetic (E) pair at the phosphosite, PM_HD2 phage selection; positive = phosphomimetic enhances binding; P-value in brackets not taken. On the procedure:
as §3, §4

Assay [6] addresses T3, MAP1LC3B. Nature of the assay: Phosphomimetic ProP-PD selection, MAP1LC3B. Particulars: phosphomimetic enrichment score of the wild-type/phosphomimetic (E) pair at the phosphosite, PM_HD2 phage selection; positive = phosphomimetic enhances binding; P-value in brackets not taken. As to the method:
as §3, §4

Assay [7] concerns the target T4, GABARAPL2 (Homo sapiens, UniProt P60520).
T4 construct: GABARAPL2_ATG8__P60520_2_115; GST (cleaved yes); made in house; host or cells: Escherichia coli BL21-Gold(DE3)
Nature of the assay: FP displacement assay, GABARAPL2. The assay is classed as binding. The conditions noted are these: read-out: KD values ± SEM. On the procedure: as §1, §2

Assay [8] has as its target T4, GABARAPL2. Nature of the assay: Phosphomimetic ProP-PD selection, GABARAPL2. The conditions noted are these: phosphomimetic enrichment score of the wild-type/phosphomimetic (E) pair at the phosphosite, PM_HD2 phage selection; positive = phosphomimetic enhances binding; P-value in brackets not taken. On the procedure: as §3, §4
The mark [9] stands for this setting: Fig 4B, TSG101 UEV, technical triplicates.
Setting [10] is: probe FITC-HIV2_Gag 5 nM, 50 mM sodium phosphate pH 7.4, room temperature, at least three technical replicates.

T4 sequence (P60520 2-115): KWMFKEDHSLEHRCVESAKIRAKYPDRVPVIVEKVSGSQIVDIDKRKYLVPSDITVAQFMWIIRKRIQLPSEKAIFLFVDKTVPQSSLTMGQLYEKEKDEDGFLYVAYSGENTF

Regarding `CSCC[C@H](NC(=O)[C@@H]1CCCN1C(=O)[C@H](CCC(=O)O)NC(=O)[C@H](CC(C)C)NC(=O)[C@@H]1CCCN1C(=O)[C@H](C)NC(=O)[C@@H](NC(=O)[C@@H]1CCCN1C(=O)[C@H](CO)NC(=O)[C@H](CO)NC(=O)[C@H](C)NC(=O)CNC(=O)[C@H](CC(N)=O)NC(=O)[C@H](Cc1ccc(O)cc1)NC(C)=O)[C@@H](C)O)C(=O)N[C@@H](CO)C(=O)N1CCC[C@H]1C(N)=O` [GJA1_269–283 E] (Ac-YNGASSPTAPLEPMSP-NH2), the 50% inhibitory concentration (IC50) in assay [1] (setting [9]) worked out at 232 ± 13 µM. In assay [1] (setting [10]), the Kd was determined as 115 ± 4 µM. Moreover, the PES in assay [2] is on record as 6 (0.0013).
With `CC(=O)N[C@@H](CCC(N)=O)C(=O)N[C@@H](CC(N)=O)C(=O)N[C@@H](CC(C)C)C(=O)N[C@@H](CO)C(=O)N[C@@H](CCCNC(=N)N)C(=O)N[C@@H](CCC(=O)O)C(=O)N[C@@H](Cc1c[nH]c2ccccc12)C(=O)N[C@@H](Cc1c[nH]cn1)C(=O)N[C@@H](CC(=O)O)C(=O)N[C@H](C(=O)N[C@@H](CCC(N)=O)C(=O)N[C@H](C(=O)N[C@@H](CO)C(=O)N[C@@H](CO)C(=O)N[C@@H](C)C(=O)N[C@@H](Cc1ccc(O)cc1)C(N)=O)C(C)C)C(C)C` [TPD52L2_91–106 E] (Ac-QNLSREWHDVQVSSAY-NH2), the IC50 in assay [3] amounted to 223 ± 12 µM. Also, the results for the Kd in assay [3] and in assay [4] were 78 ± 3 µM and 225 ± 17 µM, respectively. Also, the PES in assay [5] is reported as 14 (0.000000099); in assay [6], 3 (0.012).
Regarding `CC(=O)N[C@@H](C)C(=O)N[C@@H](CC(N)=O)C(=O)N[C@@H](CO)C(=O)N[C@@H](Cc1c[nH]c2ccccc12)C(=O)N[C@@H](CCC(N)=O)C(=O)N[C@@H](CC(C)C)C(=O)N[C@H](C(=O)N[C@@H](CCC(=O)O)C(=O)N[C@@H](CCC(=O)O)C(=O)N1CCC[C@H]1C(=O)N[C@@H](CCC(=O)O)C(=O)N[C@@H](CCCCN)C(=O)N[C@@H](CCCNC(=N)N)C(=O)N[C@@H](CCCCN)C(=O)N[C@@H](CCC(=O)O)C(=O)N[C@@H](CCC(=O)O)C(N)=O)C(C)C` [DLGAP4_907–922 E] (Ac-ANSWQLVEEPEKRKEE-NH2), in assay [7], the Kd was determined as 260 ± 25 µM. In addition, in assay [8], the PES is listed as −3.9 (0.00047).
In the case of `CC(=O)N[C@@H](Cc1c[nH]cn1)C(=O)N[C@@H](CO)C(=O)NCC(=O)N[C@@H](CC(N)=O)C(=O)N[C@H](C(=O)N[C@@H](CCC(=O)O)C(=O)N1CCC[C@H]1C(=O)N[C@H](C(=O)N[C@@H](C)C(=O)N1CCC[C@H]1C(=O)N1CCC[C@H]1C(=O)N[C@@H](Cc1ccc(O)cc1)C(=O)N[C@@H](CC(C)C)C(=O)N[C@@H](CCC(N)=O)C(=O)N[C@@H](CCC(=O)O)C(=O)N[C@@H](CO)C(N)=O)[C@@H](C)O)C(C)C` [PIP4P2_17–32 E] (Ac-HSGNVEPTAPPYLQES-NH2), the IC50 in assay [1] (setting [9]) was determined as 37 ± 8 µM. Further, the dissociation constant (Kd) in assay [1] (setting [10]) was found to be 18 ± 2 µM. The PES in assay [2] is −14 (0.0000002).
Take `CC(=O)N[C@@H](Cc1ccc(O)cc1)C(=O)N[C@@H](CCCCN)C(=O)N[C@@H](CCCCN)C(=O)N[C@@H](CCC(N)=O)C(=O)N[C@@H](CC(C)C)C(=O)N[C@@H](CCCCN)C(=O)N[C@@H](CCCNC(=N)N)C(=O)N[C@@H](Cc1ccccc1)C(=O)N[C@@H](CCC(=O)O)C(=O)N[C@H](C(=O)N[C@@H](CCC(=O)O)C(=O)N[C@@H](CCC(=O)O)C(=O)N[C@@H](Cc1ccccc1)C(=O)N[C@H](C(=O)N[C@@H](CC(C)C)C(=O)N[C@@H](CC(C)C)C(=O)O)C(C)C)[C@@H](C)O` [ATG4C444–458 E] (Ac-YKKQLKRFETEEFVLL-OH): the Kd was determined as 1.8 ± 0.2 µM in assay [7], 3.1 ± 0.2 µM in assay [3] and 4.6 ± 0.5 µM in assay [4]. For the same molecule, in assay [3], the half-inhibitory concentration (IC50) was determined as 11 ± 1 µM. Moreover, the PES is on record as 4.3 (0.0025) in assay [8], 2.3 (0.015) in assay [5] and 6 (0.00063) in assay [6].
On to `CC(=O)N[C@@H](CC(C)C)C(=O)N[C@@H](CCC(=O)O)C(=O)N[C@@H](CC(=O)O)C(=O)N[C@@H](CC(=O)O)C(=O)N[C@@H](CCC(=O)O)C(=O)N[C@@H](CCC(N)=O)C(=O)N[C@@H](Cc1ccccc1)C(=O)N[C@H](C(=O)N[C@@H](CCC(=O)O)C(=O)N[C@@H](CC(C)C)C(=O)N[C@@H](Cc1ccc(O)cc1)C(=O)NCC(=O)N[C@H](C(=O)N[C@@H](CCC(=O)O)C(=O)N[C@@H](CCC(=O)O)C(=O)N[C@@H](Cc1ccc(O)cc1)C(N)=O)[C@@H](C)O)C(C)C` [TBK1_164–179 E], for which the Kd in assay [7] came out at 12.4 ± 0.6 µM; in assay [4] it was 2.1 ± 0.2 µM. For the same molecule, the PES in assay [8] is 1 (0.11); in assay [5] it was 3.2 (0.0061); in assay [6], 5.1 (0.00047).
With “H3COC-QSIAREPS(pS/E)APSIPTPY-NH2 [PDCD6IP711–725 E, phosphomimetic (E) PDCD6IP 711-725 peptide]”, the “IC50 values of displacement curves, with SEM” value in assay [1] (setting [9]) is “n.b”. Besides, the “KD values ± SEM” value in assay [1] (setting [10]) is on record as “n.b”. Further, the PES in assay [2] is given as −15 (0.00000004).
